Test results from patent publication EP4772505A1, “COMPOUND FOR DEGRADING ANDROGEN RECEPTOR AND MEDICAL USE THEREOF” (Ubix Therapeutics, Inc., priority 2023, dated 2025).

What follows are compounds tested against T1, Androgen Receptor (AR) (Homo sapiens, UniProt P10275) (assay: Pharmacodynamic efficacy: AR degradation in tumor of VCaP xenograft model after oral administration). Details: 10 mg/kg orally once daily for three days, tumor collected 6 hours after final administration.
T1 sequence (P10275 1-920): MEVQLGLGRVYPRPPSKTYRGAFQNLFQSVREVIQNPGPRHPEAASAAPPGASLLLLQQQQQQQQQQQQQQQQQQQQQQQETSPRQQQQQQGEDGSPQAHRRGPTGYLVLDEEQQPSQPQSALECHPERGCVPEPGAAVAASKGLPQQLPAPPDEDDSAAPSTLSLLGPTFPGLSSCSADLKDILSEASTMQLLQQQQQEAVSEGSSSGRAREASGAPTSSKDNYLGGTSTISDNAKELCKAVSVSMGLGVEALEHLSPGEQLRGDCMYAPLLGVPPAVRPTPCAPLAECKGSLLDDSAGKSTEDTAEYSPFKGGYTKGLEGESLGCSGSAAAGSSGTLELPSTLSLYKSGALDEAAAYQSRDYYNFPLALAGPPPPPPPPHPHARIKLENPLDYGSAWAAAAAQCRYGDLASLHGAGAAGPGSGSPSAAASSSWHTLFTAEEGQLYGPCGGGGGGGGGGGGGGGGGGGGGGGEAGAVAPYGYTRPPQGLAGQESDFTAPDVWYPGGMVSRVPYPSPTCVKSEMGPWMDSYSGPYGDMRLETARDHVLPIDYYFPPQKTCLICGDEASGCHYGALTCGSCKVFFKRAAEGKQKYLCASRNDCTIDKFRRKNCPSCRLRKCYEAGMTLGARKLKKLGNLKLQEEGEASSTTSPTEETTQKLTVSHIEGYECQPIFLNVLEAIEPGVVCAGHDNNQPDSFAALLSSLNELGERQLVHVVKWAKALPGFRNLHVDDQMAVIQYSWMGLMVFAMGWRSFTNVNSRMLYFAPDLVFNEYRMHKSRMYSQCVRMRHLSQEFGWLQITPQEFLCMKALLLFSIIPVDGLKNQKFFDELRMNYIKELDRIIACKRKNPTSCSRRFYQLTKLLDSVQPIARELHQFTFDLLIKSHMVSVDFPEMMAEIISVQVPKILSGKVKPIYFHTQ
Format: in vivo, CB17/SCID mice
Set-up: After sacrifice, tumor tissue was collected, washed in PBS, and stored at -80°C; from tissue; host or cells: VCaP xenograft tumour from CB17/SCID mice
Protocol: The protocol for the creation of a xenograft model and pharmacodynamic experiments using VCaP cells was as follows.
[Cell Culture] VCaP cells were resuspended at a density of 4 x 10^5/mL in a mixture of DMEM MEDIUM (Hyclone, SH30243.01), 10% FBS (Hyclone, SV30207.02), 1% Penicillin-streptomycin (Welgene, LS 202-02), and 1x Non-essential amino acid solution (100x) (Sigma, M7145-100mL). 50 mL of the cells were seeded into CELLBIND cell culture flasks (150 cm^2) (Corning, 3291) and cultured for 5 days.
[Xenotransplantation] The media was removed from the flask containing cultured VCaP cells and washed with 10 mL of PBS (Welgene, LB001-02). After removing the PBS, 2 mL of 1x 0.05% Trypsin-EDTA (Welgene, LS015-01) was added and treated in a cell incubator for 3 minutes. Then, 10 mL of media was added, pipetted, and placed in a 50 mL tube. The pellets were collected by centrifugation at 500 g for 5 minutes. The collected pellets were washed once more with 20 mL of PBS. The washed pellets were collected by centrifugation at 500 g for 5 minutes. The PBS was removed, and 500 µL of HBSS (Gibco, 14025092) was added and pipetted. After diluting 100-fold in HBSS and measuring the cell count, the concentration was calculated as 3 x 10^6/50 µL/mouse, diluted in HBSS, and stored in an ice bucket. An equal volume of matrigel (R&D system, 3432-005-01) was added to the stored cells, homogenized by pipetting, and then 100 µL per mouse was inoculated subcutaneously into the right flank of CB17/SCID mice.
[Measurement of tumor size and division into groups] After 2-3 weeks of inoculation with cancer cells, the transplanted cancer cells grew and were measured in size using a caliper. The measured tumor size was calculated as [long axis x short axis^2 x 0.5]. When the tumor size exceeded approximately […], the experimental animals were divided into groups based on the average tumor size and the concentration of the drug to be administered. The groups always included a group containing only the solvent (vehicle) without the drug.
[Drug Preparation and Administration] The drug was dissolved in a solvent and orally administered to each experimental animal in a volume of 200 µL (approximately 8 mL/kg). The solvent composition was 3% DMSO (Sigma, D8418), 10% Cremophor EL (Sigma, C5135), 20% PEG400 (Sigma, 06855-1KG), and 67% distilled water. The preparation method was as follows. Depending on the drug concentration (e.g., 10 or 30 mg/kg), each drug was weighed and dissolved in DMSO corresponding to 3% of the total solvent volume. […]
[Cancer Tissue Extraction] […] Changes in tumor size were measured during the prescribed administration period, and the mice were sacrificed 6 hours after the final administration. […]
For `N#Cc1ccc(N2CCC(C(=O)Nc3ccc(OC4CCN(CC5CCN(c6ccc(NC7CCC(=O)NC7=O)cc6F)CC5)CC4)cn3)CC2)cc1C(F)(F)F` (stereo not shown) [Example 1, 1-(4-cyano-3-(trifluoromethyl)phenyl)-N-(5-((1-((1-(4-((2,6-dioxopiperidin-3-yl)amino)-2-fluorophenyl)piperidin-4-yl)methyl)piperidin-4-yl)oxy)pyridin-2-yl)piperidine-4-carboxamide], the “AR degradation in tumor (%)” value was 86%. With `N#Cc1ccc(N2CCC(C(=O)Nc3ccc(OC4CCN(CC5CCN(c6ccc(N[C@H]7CCC(=O)NC7=O)cc6F)CC5)CC4)cn3)CC2)cc1C(F)(F)F` [Example 2, (S)-1-(4-cyano-3-(trifluoromethyl)phenyl)-N-(5-((1-((1-(4-((2,6-dioxopiperidin-3-yl)amino)-2-fluorophenyl)piperidin-4-yl)methyl)piperidin-4-yl)oxy)pyridin-2-yl)piperidine-4-carboxamide] the “AR degradation in tumor (%)” value was 96%. For `N#Cc1ccc(N2CCC(C(=O)Nc3ccc(OC4CCN(CC5CCN(c6ccc(N[C@@H]7CCC(=O)NC7=O)cc6F)CC5)CC4)cn3)CC2)cc1C(F)(F)F` [Example 3, (R)-1-(4-cyano-3-(trifluoromethyl)phenyl)-N-(5-((1-((1-(4-((2,6-dioxopiperidin-3-yl)amino)-2-fluorophenyl)piperidin-4-yl)methyl)piperidin-4-yl)oxy)pyridin-2-yl)piperidine-4-carboxamide], the “AR degradation in tumor (%)” value was 89%. With `N#Cc1ccc(N2CCC(C(=O)Nc3ccc(OC4CCN(CC5CCN(c6ccc(N[C@H]7CCC(=O)NC7=O)cc6F)CC5)CC4)cn3)CC2)cc1Cl` [Example 9, (S)-1-(3-chloro-4-cyanophenyl)-N-(5-((1-((1-(4-((2,6-dioxopiperidin-3-yl)amino)-2-fluorophenyl)piperidin-4-yl)methyl)piperidin-4-yl)oxy)pyridin-2-yl)piperidine-4-carboxamide] the “AR degradation in tumor (%)” value was 97%.
